Laboratory results reported in patent publication US20060212961A1, “Rice transposon gene” (priority 2003, published 2006).

Assays:
[1] = tested on: pyl-stb seeds; assay: Azacytidine treatment of pyl-stb seeds, appearance of mutable (pyl-v) individuals; type: in vivo, rice; settings: for Germination rate (%) / Mutable individual (%) / Individual with mutable or abnormal phenotype / Mutable individual / Normal individual: seeds macerated 24 hrs at 30° C.; for Individual with mutable or abnormal phenotype / Mutable individual / Normal individual: number of individuals
Description: pyl-stb seeds were macerated in 0.15, 0.3 or 0.45 mM azacytidine aqueous solution for 24 hrs at 30° C., washed them, left for germination and examined the expression of pyl-v.

[2] = tested on: indica rice (93-11); assay: Azacytidine treatment of indica rice (93-11), release of nDart; type: in vivo; settings: 93-11 treated with azacytidine; no release under usual growth conditions
Description: Furthermore, indica rice (93-11) was treated with azacytidine and confirmed release of nDart.

Structure (SMILES): Nc1ncn([C@@H]2O[C@H](CO)[C@@H](O)[C@H]2O)c(=O)n1 [azaC, 5-azacytidine]
- Frequency of the transposition of nDart ([1]; 0.15, 0.3 or 0.45 mM azacytidine aqueous solution, 24 hrs at 30° C.): increased as the concentration of azacytidine increased
- Germination rate (%) ([1]; azaC 0.15 mM): 99%
- Mutable individual (%) ([1]; azaC 0.15 mM): 60.6%
- Individual with mutable or abnormal phenotype ([1]; azaC 0.15 mM): 17
- Mutable individual ([1]; azaC 0.15 mM): 43
- Normal individual ([1]; azaC 0.15 mM): 39
- Germination rate (%) ([1]; azaC 0.3 mM): 92%
- Mutable individual (%) ([1]; azaC 0.3 mM): 69.6%
- Individual with mutable or abnormal phenotype ([1]; azaC 0.3 mM): 27
- Mutable individual ([1]; azaC 0.3 mM): 37
- Normal individual ([1]; azaC 0.3 mM): 28
- Germination rate (%) ([1]; azaC 0.45 mM): 95%
- Mutable individual (%) ([1]; azaC 0.45 mM): 73.7%
- Individual with mutable or abnormal phenotype ([1]; azaC 0.45 mM): 36
- Mutable individual ([1]; azaC 0.45 mM): 34
- Normal individual ([1]; azaC 0.45 mM): 25
- Change of pyl-stb to a pyl-v mutant ([1]; azacytidine treatment of pyl-stb seeds): able to be changed to a pyl-v mutant
- Release of nDart [2]: release was confirmed
